In the test the test system is P388 leukemia ip, CD2F1 mice, survival T/C. Description: NCI In Vivo Anticancer Drug Screen. Data for tumor model P388 Leukemia (intraperitoneal) in CD2F1 (CDF1) mice. The conditions noted are these: endpoint: median survival time, higher = longer survival. The method, boiled down: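 Mice carrying the transplanted tumor received test compound or vehicle. Survival was recorded in each group, and the value is the treated-group measurement divided by that of the vehicle-treated control group.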

The mark [1] stands for this setting: dose: 100.0 mg/kg/injection, schedule: Q04DX003 (ip), vehicle: saline with Tween-80.
Where [2] appears, read: dose: 200.0 mg/kg/injection, schedule: Q04DX003 (ip), vehicle: saline with Tween-80.
Where [3] appears, read: dose: 400.0 mg/kg/injection, schedule: Q04DX003 (ip), vehicle: saline with Tween-80.
The mark [4] stands for this setting: dose: 50.0 mg/kg/injection, schedule: Q01DX009 (ip), vehicle: saline with Tween-80.
Setting [5] is: dose: 100.0 mg/kg/injection, schedule: Q01DX009 (ip), vehicle: saline with Tween-80.
Where [6] appears, read: dose: 200.0 mg/kg/injection, schedule: Q01DX009 (ip), vehicle: saline with Tween-80.
The mark [7] stands for this setting: dose: 50.0 mg/kg/injection, schedule: Q01DX009 (ip), vehicle: Klucel (hydroxypropylcellulose) (HPC).
Setting [8] is: dose: 100.0 mg/kg/injection, schedule: Q01DX009 (ip), vehicle: Klucel (hydroxypropylcellulose) (HPC).
[9] abbreviates: dose: 200.0 mg/kg/injection, schedule: Q01DX009 (ip), vehicle: Klucel (hydroxypropylcellulose) (HPC).
[10] abbreviates: dose: 100.0 mg/kg/injection, schedule: Q04DX003 (ip), vehicle: saline.
Setting [11] is: dose: 200.0 mg/kg/injection, schedule: Q04DX003 (ip), vehicle: saline.
Where [12] appears, read: dose: 400.0 mg/kg/injection, schedule: Q04DX003 (ip), vehicle: saline.
The mark [13] stands for this setting: dose: 100.0 mg/kg/injection, schedule: Q01DX001 (ip), vehicle: Klucel (hydroxypropylcellulose) (HPC).
Setting [14] is: dose: 200.0 mg/kg/injection, schedule: Q01DX001 (ip), vehicle: Klucel (hydroxypropylcellulose) (HPC).
[15] abbreviates: dose: 100.0 mg/kg/injection, schedule: Q01DX001 (ip), vehicle: saline.
Where [16] appears, read: dose: 200.0 mg/kg/injection, schedule: Q01DX001 (ip), vehicle: saline.

Where “and” joins values, the source holds several entries; their conditions need not be identical. Equal entries are not always repeated. Inconclusive results and toxic doses are left out.

As for `Cc1ccc(NC(=O)C(c2ccccc2)c2ccccc2)cc1`, the T/C is 98 % of control under setting [1], 97 % of control under setting [2] and 92 % of control under setting [3].

Turning to `Cc1ccc(NC(=O)N(NC(=O)NNc2ccccc2)c2ccccc2)c(C)c1`, the T/C is, setting by setting: under setting [4], 99 % of control; under setting [5], 93 % of control; under setting [6], 92 % of control.

On to `CCOC(=O)c1c(C)[nH]c2c(-c3ccccc3)c3cc(Cl)ccc3nc12`, for which the T/C under setting [7] was 103 % of control; the T/C under setting [8] is 109 % of control; the T/C under setting [9] is 104 % of control; the T/C (dose: 400.0 mg/kg/injection, schedule: Q01DX009 (ip), vehicle: Klucel (hydroxypropylcellulose) (HPC)) is 99 % of control.

In the case of `O=[N+]1C=Cc2ccccc2C1=C1c2ccccc2C=CN1[O-]`, the T/C by setting is: (dose: 25.0 mg/kg/injection, schedule: Q01DX005 (ip), vehicle: saline with Tween-80) 101 % of control; (dose: 50.0 mg/kg/injection, schedule: Q01DX005 (ip), vehicle: saline with Tween-80) 97 % of control; (dose: 100.0 mg/kg/injection, schedule: Q01DX005 (ip), vehicle: saline with Tween-80) 103 % of control.

Consider `C1CNCCNCCNCCN1`, for which the T/C is, setting by setting: (dose: 12.5 mg/kg/injection, schedule: Q01DX009 (ip), vehicle: water) 101 % of control; (dose: 25.0 mg/kg/injection, schedule: Q01DX009 (ip), vehicle: water) 96 % of control; (dose: 50.0 mg/kg/injection, schedule: Q01DX009 (ip), vehicle: water) 100 % of control; (dose: 100.0 mg/kg/injection, schedule: Q01DX009 (ip), vehicle: water) 101 % of control.

Regarding `CC(=O)c1cc(C)ccc1S(C)=O` (configuration not stated), the T/C reads like this: (dose: 50.0 mg/kg/injection, schedule: Q01DX005 (ip), vehicle: acetone) 99 % of control; (dose: 100.0 mg/kg/injection, schedule: Q01DX005 (ip), vehicle: acetone) 100 % of control; (dose: 200.0 mg/kg/injection, schedule: Q01DX005 (ip), vehicle: acetone) 100 % of control.

For the compound `C1=NCCN=Cc2ccccc2NCCNc2ccccc21`, the T/C by setting is: under setting [10], 93 % of control; under setting [11], 91 % of control; under setting [12], 103 % of control.

As to `O=c1[nH]c(=O)n(C2CC(O)C(CO)C2)cc1F` (configuration not stated), the T/C by setting is: (dose: 200.0 mg/kg/injection, schedule: Q01DX005 (ip), vehicle: saline + Tween-80 + alcohol) 100 % of control; (dose: 400.0 mg/kg/injection, schedule: Q01DX005 (ip), vehicle: saline + Tween-80 + alcohol) 120 % of control.

`CCOC(=O)c1ccc(NC(CCC(C#N)(C#N)CCC(=NC(C)(C)C)Nc2ccc(C(=O)OCC)cc2)=NC(C)(C)C)cc1`: the T/C was 95 % of control under setting [4], 95 % of control under setting [5] and 96 % of control under setting [6].

For `CC(C)c1ccc(/C(O)=C/C(=O)C(=O)/C=C(/O)c2ccc(C(C)C)cc2)cc1`, the T/C was 100 % of control (dose: 100.0 mg/kg/injection, schedule: Q04DX002 (ip), vehicle: saline); 100 % of control (dose: 200.0 mg/kg/injection, schedule: Q04DX002 (ip), vehicle: saline); 99 % of control (dose: 400.0 mg/kg/injection, schedule: Q04DX002 (ip), vehicle: saline).

For `Cn1c([N+](=O)[O-])cnc1/C=[N+](\[O-])CCO`, the T/C reads like this: (dose: 50.0 mg/kg/injection, schedule: Q01DX009 (ip), vehicle: saline) 100 % of control; (dose: 100.0 mg/kg/injection, schedule: Q01DX009 (ip), vehicle: saline) 100 % of control; (dose: 200.0 mg/kg/injection, schedule: Q01DX009 (ip), vehicle: saline) 102 % of control.

As for `CCOC(=O)NC(C)CC(C)NC(=O)OCC` (configuration not stated), the T/C (dose: 50.0 mg/kg/injection, schedule: Q01DX001 (ip), vehicle: Klucel (hydroxypropylcellulose) (HPC)) is 94 % of control; the T/C under setting [13] was 92 % of control; the T/C under setting [14] was 93 % of control.

On to `CC(C)C1=CC2=C(CC1)C1(C)CCCC(C)(C(=O)O)C1CC2` (configuration not stated), for which the T/C is, setting by setting: under setting [5], 100 % of control; under setting [6], 100 % of control; (dose: 400.0 mg/kg/injection, schedule: Q01DX009 (ip), vehicle: saline with Tween-80) 100 % of control.

For the compound `CN(C)C(=O)NC1CCC2CCCCC2C1` (configuration not stated), the T/C runs as follows: under setting [15], 100 % of control; under setting [16], 99 % of control; (dose: 400.0 mg/kg/injection, schedule: Q01DX001 (ip), vehicle: saline) 98 % of control.

Turning to `O=C(O)CN(CCN(CC(=O)O)CC(=O)O)CC(=O)O.[Cl][Pd][Cl]`, the T/C was 97 % of control (dose: 15.0 mg/kg/injection, schedule: Q01DX005 (ip), vehicle: saline); 93 % of control (dose: 30.0 mg/kg/injection, schedule: Q01DX005 (ip), vehicle: saline); 91 % of control and 95 % of control (dose: 60.0 mg/kg/injection, schedule: Q01DX005 (ip), vehicle: saline).

Take `CN=C(NCCc1ccccc1)c1ccc(NC(=O)c2ccc(C(=O)Nc3ccc(C(=NC)NCCc4ccccc4)cc3)cc2)cc1`: the T/C is, setting by setting: (dose: 3.12 mg/kg/injection, schedule: Q01DX005 (ip), vehicle: Klucel (hydroxypropylcellulose) (HPC)) 114 % of control; (dose: 6.25 mg/kg/injection, schedule: Q01DX005 (ip), vehicle: Klucel (hydroxypropylcellulose) (HPC)) 116 % of control and 122 % of control; (dose: 12.5 mg/kg/injection, schedule: Q01DX005 (ip), vehicle: Klucel (hydroxypropylcellulose) (HPC)) 154 % of control.

Take `Cc1nn(C(=S)S)c(C)c1N=Nc1cccc(Cl)c1Cl`: the T/C is 91 % of control (dose: 100.0 mg/kg/injection, schedule: Q01DX001 (ip), vehicle: saline with Tween-80); 94 % of control (dose: 200.0 mg/kg/injection, schedule: Q01DX001 (ip), vehicle: saline with Tween-80); 108 % of control (dose: 400.0 mg/kg/injection, schedule: Q01DX001 (ip), vehicle: saline with Tween-80).

For `CCC(NCC(C)C)NCC(C)C`, the T/C is 100 % of control (dose: 25.0 mg/kg/injection, schedule: Q04DX003 (ip), vehicle: saline); 109 % of control (dose: 50.0 mg/kg/injection, schedule: Q04DX003 (ip), vehicle: saline); 95 % of control under setting [10].

As for `C[C@@H]1CC2=CC(=O)CC[C@@H]2[C@H]2CC[C@@]3(C)[C@@H](CC[C@]3(C)O)[C@@H]21`, the T/C is, setting by setting: (dose: 25.0 mg/kg/injection, schedule: Q01DX009 (ip), vehicle: saline with Tween-80) 100 % of control; (dose: 25.0 mg/kg/injection, schedule: Q04DX003 (ip), vehicle: saline with Tween-80) 100 % of control; under setting [4], 105 % of control; (dose: 50.0 mg/kg/injection, schedule: Q04DX003 (ip), vehicle: saline with Tween-80) 91 % of control; under setting [5], 105 % of control; under setting [1], 104 % of control. The T/C under setting [2] is 100 % of control and the T/C under setting [3] was 90 % of control.

On to `O=[n+]1ccn([O-])c2ccccc21.[O-][Cl+3]([O-])([O-])O.[Zn+2]`, for which the T/C under setting [1] is 98 % of control.

For `COC(=O)C1=NC(=O)C(C#N)=C(C(=O)OC)C1(C(=O)c1ccc(OC)cc1)c1ccc(OC)cc1` (configuration not stated), the T/C was 95 % of control (dose: 60.0 mg/kg/injection, schedule: Q01DX005 (ip), vehicle: Klucel (hydroxypropylcellulose) (HPC)) and 91 % of control (dose: 120.0 mg/kg/injection, schedule: Q01DX005 (ip), vehicle: Klucel (hydroxypropylcellulose) (HPC)).

In the case of `Cc1cnc(I)[nH]1`, the T/C is 102 % of control under setting [15]; 107 % of control under setting [10]; 105 % of control under setting [16]; 112 % of control under setting [11]; 92 % of control under setting [12].

As for `O=C(O)CC12CC3CC(CC(O)(C3)C1)C2`, the T/C is, setting by setting: under setting [7], 100 % of control; under setting [8], 109 % of control; under setting [9], 90 % of control.

Consider `COC(=O)C1=CN(C)/C(=C/C=C(\C#N)C(=O)OC)C(C#N)=C1N`, for which the T/C reads like this: under setting [13], 96 % of control; under setting [14], 97 % of control; (dose: 400.0 mg/kg/injection, schedule: Q01DX001 (ip), vehicle: Klucel (hydroxypropylcellulose) (HPC)) 96 % of control.

For the origin of these results see PubChem BioAssay AID330 (DTP/NCI, 2004).
